Experiment [1] addresses T1, Bcl-2-related protein A1 (Homo sapiens, UniProt Q16548).
T1 sequence (Q16548 whole entry): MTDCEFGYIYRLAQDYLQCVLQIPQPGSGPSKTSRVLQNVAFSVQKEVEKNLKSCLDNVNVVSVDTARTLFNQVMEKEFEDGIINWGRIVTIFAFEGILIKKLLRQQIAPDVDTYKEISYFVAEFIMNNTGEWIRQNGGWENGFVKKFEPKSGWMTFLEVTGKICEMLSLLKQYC
Description: Inhibition of His-tagged human BFL-1(1 to 151 residues) expressed in Escherichia coli BL21 (DE3) by fluorescence polarization-based binding assay

Experiment [2] addresses T1, Bcl-2-related protein A1. The experiment can be described thus: Displacement of fluorescein tagged BID BH3 peptide from His-tagged recombinant BFL-1 (1 to 151 residues) (unknown origin) expressed in Escherichia coli BL21 (DE3) assessed as inhibition constant incubated for 24 hrs by fluorescence polarization-based competitive binding assay. A general note: Polarisation of emitted light reports the rotation of a fluorescent probe.

A further experiment concerns MM1.S. Put plainly: Growth inhibition of human MM1.S cells incubated for 4 days by WST assay. The experiment is classed as functional, cell-based. Particulars: 96 h.
Experiment [3] deals with U-937. Put plainly: Induction of apoptosis in human U-937 cells assessed as necrotic cells at 20 uM measured after 4 hrs by Annexin PI staining based flow cytometry method (reference value: 0.00 %). The format is functional.
The test system of experiment [4] is U-937. The experiment can be described thus: Induction of apoptosis in human U-937 cells assessed as early apoptotic cells at 60 uM measured after 4 hrs by Annexin PI staining based flow cytometry method (reference value: 1.95 %). The experiment is classed as functional. A general note: Flow cytometry measures light scatter and fluorescence of single cells or particles in a stream.

Experiment [5] relates to U-937. Put plainly: Induction of apoptosis in human U-937 cells assessed as late apoptotic cells at 60 uM measured after 4 hrs by Annexin PI staining based flow cytometry method (reference value: 1.62 %). The experiment is classed as functional.
Experiment [6] concerns U-937. The experiment can be described thus: Induction of apoptosis in human U-937 cells assessed as late apoptotic cells at 20 uM measured after 4 hrs by Annexin PI staining based flow cytometry method (reference value: 1.62 %). The experiment is classed as functional.
Experiment [7] relates to U-937. The experiment can be described thus: Induction of apoptosis in human U-937 cells assessed as early apoptotic cells at 40 uM measured after 4 hrs by Annexin PI staining based flow cytometry method (reference value: 1.95 %). The experiment is classed as functional.
The test system of experiment [8] is U-937. Put plainly: Induction of apoptosis in human U-937 cells assessed as late apoptotic cells at 40 uM measured after 4 hrs by Annexin PI staining based flow cytometry method (reference value: 1.62 %). The format is functional.
The subject of another experiment is HL-60. Put plainly: Growth inhibition of human HL-60 cells incubated for 4 days by WST assay. The experiment is classed as functional, cell-based. Particulars: HL-60, 96 h.
Another experiment deals with K562. Put plainly: Growth inhibition of human K562 cells incubated for 4 days by WST assay. The experiment is classed as functional, cell-based. Particulars: K562, 96 h.
For experiment [9], the system named is U-937. The experiment can be described thus: Induction of apoptosis in human U-937 cells assessed as early apoptotic cells at 10 uM measured after 4 hrs by Annexin PI staining based flow cytometry method (reference value: 1.95 %). The experiment is classed as functional.
The subject of the next experiment is Kasumi 1. Put plainly: Growth inhibition of human Kasumi 1 cells incubated for 4 days by WST assay. The experiment is classed as functional, cell-based. To be noted: Kasumi 1, 96 h.
The test system of experiment [10] is U-937. Put plainly: Induction of apoptosis in human U-937 cells assessed as early apoptotic cells at 20 uM measured after 4 hrs by Annexin PI staining based flow cytometry method (reference value: 1.95 %). The format is functional.
The subject of experiment [11] is U-937. Put plainly: Induction of apoptosis in human U-937 cells assessed as necrotic cells at 10 uM measured after 4 hrs by Annexin PI staining based flow cytometry method (reference value: 0.00 %). The experiment is classed as functional.
The test system of experiment [12] is U-937. Put plainly: Growth inhibition of human U-937 cells incubated for 4 days by WST assay. The format is functional, cell-based. To be noted: U-937, 96 h.
The next experiment concerns Raji. The experiment can be described thus: Growth inhibition of human Raji cells incubated for 4 days by WST assay. The format is functional, cell-based. To be noted: 96 h.
For experiment [13], the system named is U-937. Put plainly: Induction of apoptosis in human U-937 cells assessed as necrotic cells at 40 uM measured after 4 hrs by Annexin PI staining based flow cytometry method (reference value: 0.00 %). The format is functional.
The next experiment concerns RPMI-8226. The experiment can be described thus: Growth inhibition of human RPMI-8226 cells incubated for 4 days by WST assay. To be noted: RPMI-8226, 96 h. The experiment is classed as functional, cell-based.
Another experiment concerns MV4-11. The experiment can be described thus: Growth inhibition of human MV4-11 cells incubated for 4 days by WST assay. The experiment is classed as functional, cell-based. Particulars: MV4-11, 96 h.
Experiment [14] is described as follows: Displacement of fluorescein tagged BID BH3 peptide from His-tagged recombinant BFL-1 (1 to 151 residues) C55A mutant (unknown origin) expressed in Escherichia coli BL21 (DE3) assessed as inhibition constant incubated for 24 hrs by fluorescence polarization-based competitive binding assay. The arrangement: species or system Homo sapiens.
The test system of experiment [15] is U-937. Put plainly: Induction of apoptosis in human U-937 cells assessed as necrotic cells at 60 uM measured after 4 hrs by Annexin PI staining based flow cytometry method (reference value: 0.00 %). The format is functional.
The subject of experiment [16] is U-937. The experiment can be described thus: Induction of apoptosis in human U-937 cells assessed as late apoptotic cells at 10 uM measured after 4 hrs by Annexin PI staining based flow cytometry method (reference value: 1.62 %). The format is functional.
Experiment [17] deals with T1, Bcl-2-related protein A1. Put plainly: Displacement of fluorescent-labeled BID-BH3 peptide from His-tagged human BFL-1 (1 to 151 residues) expressed in Escherichia coli BL21 (DE3) assessed as inhibition constant by fluorescence polarization-based competitive binding assay.
Experiment [18] concerns the target Apoptosis regulator Bcl-2 (Homo sapiens, UniProt P10415). Put plainly: Displacement of fluorescent-labeled BID-BH3 peptide from human BCL-2 expressed in Escherichia coli BL21 (DE3) assessed as inhibition constant by fluorescence polarization-based competitive binding assay.
Experiment [19] deals with Induced myeloid leukemia cell differentiation protein Mcl-1 (Homo sapiens, UniProt Q07820). The experiment can be described thus: Displacement of fluorescent-labeled BID-BH3 peptide from His-tagged human MCL-1 expressed in Escherichia coli BL21 (DE3) assessed as inhibition constant by fluorescence polarization-based competitive binding assay.
The next experiment deals with Bcl-2-like protein 1 (Homo sapiens, UniProt Q07817). Put plainly: Displacement of fluorescent-labeled BID-BH3 peptide from human BCL-xL expressed in Escherichia coli BL21 (DE3) assessed as inhibition constant by fluorescence polarization-based competitive binding assay.
Another experiment concerns the target Bcl-2-like protein 2 (Homo sapiens, UniProt Q92843). The experiment can be described thus: Displacement of fluorescent-labeled BID-BH3 peptide from human BCL-W expressed in Escherichia coli BL21 (DE3) assessed as inhibition constant by fluorescence polarization-based competitive binding assay.

Molecules are shown by their SMILES.

Chain of Apoptosis regulator Bcl-2 (P10415 whole entry): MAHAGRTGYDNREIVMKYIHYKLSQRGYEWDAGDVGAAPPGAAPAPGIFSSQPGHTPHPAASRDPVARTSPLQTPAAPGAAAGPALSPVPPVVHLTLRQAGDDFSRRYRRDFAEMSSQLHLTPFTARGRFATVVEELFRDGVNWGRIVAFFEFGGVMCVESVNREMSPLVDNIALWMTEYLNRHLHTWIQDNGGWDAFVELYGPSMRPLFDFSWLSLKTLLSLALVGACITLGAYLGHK
Chain of Bcl-2-like protein 2 (Q92843 whole entry): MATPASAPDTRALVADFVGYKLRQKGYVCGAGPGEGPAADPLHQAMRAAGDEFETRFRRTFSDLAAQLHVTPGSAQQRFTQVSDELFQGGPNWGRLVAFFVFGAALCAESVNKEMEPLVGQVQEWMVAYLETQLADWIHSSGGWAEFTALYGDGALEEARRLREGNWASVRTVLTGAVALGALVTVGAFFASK
Chain of Bcl-2-like protein 1 (Q07817 whole entry): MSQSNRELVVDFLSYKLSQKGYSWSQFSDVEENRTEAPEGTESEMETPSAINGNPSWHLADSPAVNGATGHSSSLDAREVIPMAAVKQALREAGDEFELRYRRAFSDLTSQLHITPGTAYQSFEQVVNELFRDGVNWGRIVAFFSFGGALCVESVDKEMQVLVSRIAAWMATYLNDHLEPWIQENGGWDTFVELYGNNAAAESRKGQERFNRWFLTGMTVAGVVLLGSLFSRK
Chain of Induced myeloid leukemia cell differentiation protein Mcl-1 (Q07820 whole entry): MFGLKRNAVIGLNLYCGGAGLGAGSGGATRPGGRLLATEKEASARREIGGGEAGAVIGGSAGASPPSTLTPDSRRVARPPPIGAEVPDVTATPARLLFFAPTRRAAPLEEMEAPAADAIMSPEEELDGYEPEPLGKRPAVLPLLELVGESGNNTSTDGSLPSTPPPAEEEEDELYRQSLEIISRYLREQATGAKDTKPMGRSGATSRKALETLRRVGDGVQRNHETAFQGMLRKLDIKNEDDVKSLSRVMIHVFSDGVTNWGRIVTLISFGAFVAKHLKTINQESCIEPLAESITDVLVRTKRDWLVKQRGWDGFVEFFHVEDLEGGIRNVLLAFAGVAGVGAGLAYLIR

Consider `CC(=O)NC(Cc1c[nH]c2ccccc12)C(=O)NCCSSCCN(C)C` (stereo not given), for which half-maximal inhibition against Bcl-2-related protein A1 [1] (IC50) required 1.3 µM.
For `COc1cccc(Cn2nc3cc(-c4cccc(F)c4)ccc3c2N2CCNCC2)c1`, on Bcl-2-related protein A1 [2], the Ki was 3.01 µM.
`C=CC(=O)N1CCN(c2c3ccc(-c4cccc(F)c4)cc3nn2CCC(C)(C)C)CC1`: at Bcl-2-related protein A1 [2], the Ki is more than 100 µM.
Turning to `CCC(=O)N1CCN(c2c3ccc(-c4cccc(F)c4)cc3nn2Cc2ccccc2)CC1`, the IC50 with MM1.S amounted to 16.8 µM; with HL-60, 28.9 µM; in the experiment on K562 it was 10.4 µM; with Kasumi 1, 7.1 µM; in the experiment with U-937 [12], 9.3 µM; in the experiment with Raji, 48.2 µM. Moreover, the IC50 turned out to be 11.8 µM with RPMI-8226 and 8.9 µM in the experiment with MV4-11. The Activity with U-937 [3] worked out at 0.05%; in the experiment with U-937 [4], 3.65%; in the experiment with U-937 [5] it was 2.06%; in the experiment with U-937 [6] it was 1.8%; in the experiment on U-937 [7], 3.14%; in the experiment with U-937 [8], 1.57%. Besides, the Activity in the experiment with U-937 [9] is given as 1.96%; with U-937 [10] it was 2.79%; in the experiment on U-937 [11], 0.16%; in the experiment on U-937 [13] it was 0.03%; in the experiment with U-937 [15] it was 0.03%; in the experiment on U-937 [16], 2.02%. The Ki on Bcl-2-related protein A1 [2] was 24.1 µM; in [14], more than 200 µM.
For the compound `C=CC(=O)N1CCN(c2c3ccc(-c4cccc(F)c4)cc3nn2Cc2ccc(Cl)cc2)CC1`, the Ki on Bcl-2-related protein A1 [2] was more than 100 µM.
On the same count and under the same terms, to `C=CC(=O)N1CCN(c2c3ccc(-c4cccc(F)c4)cc3nn2Cc2ccc(O)cc2)CC1` belongs 10.2 µM; to `C=CC(=O)N1CCN(c2c3ccc(-c4cccc(F)c4)cc3nn2Cc2ccc(C(=O)O)cc2)CC1`, more than 100 µM.
As for `CSc1ccc(C(Nc2ccccn2)c2c(C)[nH]c3ccccc23)cc1` (stereo not given), the Ki on Bcl-2-related protein A1 [17] stood at 2.9 µM; in [18], 12.9 µM.
Turning to `C=CC(=O)N1CCN(c2c3ccc(-c4cccc(F)c4)cc3nn2Cc2ccc(OC)cc2)CC1`, the Ki at Bcl-2-related protein A1 [2] is more than 100 µM.
Turning to `CC1(C)CCC(CN2CCN(c3ccc(C(=O)NS(=O)(=O)c4ccc(NCC5CCOCC5)c([N+](=O)[O-])c4)c(Oc4cnc5[nH]ccc5c4)c3)CC2)=C(c2ccc(Cl)cc2)C1` [VENETOCLAX], the Ki in experiment [19] was more than 0.444 µM.
Regarding `C=CC(=O)N1CCN(c2c3ccc(-c4cccc(F)c4)cc3nn2Cc2ccc(C#N)cc2)CC1`, the Ki on Bcl-2-related protein A1 [2] was determined as 3.23 µM.
For the compound `C=CC(=O)N1CCN(c2c3ccc(-c4cccc(F)c4)cc3nn2CCCO)CC1`, on Bcl-2-related protein A1 [2], the Ki came to 2.41 µM.
Turning to `CC(C)(C)c1ccc(CN2CCN(S(=O)(=O)Nc3ccc(SCCc4ccccc4)cc3C(=O)O)CC2)cc1`, the IC50 in the experiment with MM1.S is 32.6 µM; in the experiment with HL-60, 32.8 µM; with K562 it was 18.9 µM; in the experiment on Kasumi 1 it was 20.3 µM; in the experiment on U-937 [12], 19.9 µM; in the experiment with Raji, 51.5 µM. For the same compound, the results for the IC50 in the experiment with RPMI-8226 and in the experiment on MV4-11 were 21.3 µM and 20.8 µM, respectively. In addition, the Ki in experiment [14] was found to be 2.28 µM.
In the case of `C=CC(=O)N1CCN(c2c3ccc(-c4cccc(F)c4)cc3nn2CCCN(C)C)CC1`, on Bcl-2-related protein A1 [2], the Ki stood at 18.1 µM.
Turning to `C=CC(=O)N1CCN(c2c3ccc(-c4cccc(F)c4)cc3nn2Cc2cccc(Cl)c2)CC1`, the Ki on Bcl-2-related protein A1 [2] was more than 100 µM.
As to `C=CC(=O)N1CCN(c2c3ccc(-c4cccc(F)c4)cc3nn2Cc2cccc(C#N)c2)CC1`, at Bcl-2-related protein A1 [2], the Ki was determined as 3.34 µM.
Consider `C=CC(=O)N1CCN(c2c3ccc(-c4cccc(F)c4)cc3nn2CC)CC1`, for which the Ki on Bcl-2-related protein A1 [2] was 2.85 µM.
With `C=CC(=O)N1CCN(c2c3ccc(-c4cccc(F)c4)cc3nn2CCCOC)CC1`, the Ki at Bcl-2-related protein A1 [2] was more than 100 µM.
Same read-out and setting: as for `C=CC(=O)N1CCN(c2c3ccc(-c4cccc(F)c4)cc3nn2Cc2cccc(O)c2)CC1`, the figure is 18.4 µM; as for `C=CC(=O)N1CCN(c2c3ccc(-c4cccc(F)c4)cc3nn2Cc2cccc(C(=O)O)c2)CC1`, more than 100 µM; as for `C=CC(=O)N1CCN(c2c3ccc(-c4cccc(F)c4)cc3nn2CCC)CC1`, 1.13 µM.
Take `CN1CCN(C2=C(Cl)C(=O)N(c3ccc(Cl)c(Cl)c3)C2=O)CC1`: the Ki on Bcl-2-related protein A1 [17] turned out to be 0.4 µM; in [18], 12.5 µM; at Bcl-2-like protein 1, 50 µM; at Bcl-2-like protein 2 it was 12.5 µM.

A word on the IC50: it is the concentration that gives 50% inhibition. The term Ki denotes the equilibrium dissociation constant of an inhibitor or competing ligand from its target.

The values above are taken from ChEMBL document CHEMBL5154839, “Discovery of a selective and covalent small-molecule inhibitor of BFL-1 protein that induces robust apoptosis in cancer cells” (Eur J Med Chem, 2022).
